Numbers after ± are expanded uncertainties.
Assay: activity coefficient (dimensionless); of the first substance listed, at infinite dilution; xn = mol fraction of the nth substance listed
Settings: Liquid, Chromatography, x1 = 0

ClC(Cl)Cl [trichloromethane] + CCCC[N+](C)(C)C.O=S(=O)([N-]S(=O)(=O)C(F)(F)F)C(F)(F)F
activity coefficient (301.75 K): 1.03 ± 0.06 | activity coefficient (312.15 K): 1.04 ± 0.07 | activity coefficient (333.25 K): 1.04 ± 0.07

CCCCCCCCCCC [undecane] + CCCC[N+](C)(C)C.O=S(=O)([N-]S(=O)(=O)C(F)(F)F)C(F)(F)F
activity coefficient (333.25 K): 94.4 ± 6.5 | activity coefficient (343.65 K): 83.9 ± 5.8 | activity coefficient (354.05 K): 73.3 ± 5 | activity coefficient (364.55 K): 66.3 ± 4.5 | activity coefficient (374.95 K): 56 ± 3.8

CCO [ethanol] + CCCC[N+](C)(C)C.O=S(=O)([N-]S(=O)(=O)C(F)(F)F)C(F)(F)F
activity coefficient (312.25 K): 1.94 ± 0.13 | activity coefficient (322.85 K): 1.73 ± 0.12 | activity coefficient (333.25 K): 1.57 ± 0.1 | activity coefficient (343.65 K): 1.41 ± 0.09

CCC(C)(C)O [2-methylbutan-2-ol] + CCCC[N+](C)(C)C.O=S(=O)([N-]S(=O)(=O)C(F)(F)F)C(F)(F)F
activity coefficient (302.55 K): 2.53 ± 0.17 | activity coefficient (312.15 K): 2.32 ± 0.16 | activity coefficient (333.25 K): 1.94 ± 0.13 | activity coefficient (343.65 K): 1.8 ± 0.12 | activity coefficient (354.05 K): 1.67 ± 0.11

CCCCCCC(=O)OC [methyl heptanoate] + CCCC[N+](C)(C)C.O=S(=O)([N-]S(=O)(=O)C(F)(F)F)C(F)(F)F
activity coefficient (343.55 K): 3.18 ± 0.22 | activity coefficient (354.05 K): 3.01 ± 0.2 | activity coefficient (364.55 K): 2.81 ± 0.19 | activity coefficient (374.95 K): 2.64 ± 0.18 | activity coefficient (385.45 K): 2.43 ± 0.17

CCC(C)O (stereo unspecified) [butan-2-ol] + CCCC[N+](C)(C)C.O=S(=O)([N-]S(=O)(=O)C(F)(F)F)C(F)(F)F
activity coefficient (333.15 K): 2.06 ± 0.14 | activity coefficient (343.65 K): 1.87 ± 0.13 | activity coefficient (354.05 K): 1.7 ± 0.11 | activity coefficient (364.45 K): 1.53 ± 0.1 | activity coefficient (374.95 K): 1.38 ± 0.09

CCCCCCO [hexan-1-ol] + CCCC[N+](C)(C)C.O=S(=O)([N-]S(=O)(=O)C(F)(F)F)C(F)(F)F
activity coefficient (343.65 K): 4.02 ± 0.27 | activity coefficient (354.05 K): 3.58 ± 0.24 | activity coefficient (364.45 K): 3.24 ± 0.22 | activity coefficient (385.55 K): 2.67 ± 0.18

CCCCCCCCCC [decane] + CCCC[N+](C)(C)C.O=S(=O)([N-]S(=O)(=O)C(F)(F)F)C(F)(F)F
activity coefficient (302.15 K): 97.8 ± 6.7 | activity coefficient (312.15 K): 87.5 ± 6 | activity coefficient (322.65 K): 77.5 ± 5.3 | activity coefficient (333.25 K): 67.2 ± 4.6 | activity coefficient (343.65 K): 59.9 ± 4.1 | activity coefficient (354.05 K): 53.7 ± 3.7

C=CCCCCCCCC [1-decene] + CCCC[N+](C)(C)C.O=S(=O)([N-]S(=O)(=O)C(F)(F)F)C(F)(F)F
activity coefficient (306.15 K): 50.4 ± 3.5 | activity coefficient (311.95 K): 47.8 ± 3.3 | activity coefficient (322.55 K): 43.1 ± 3 | activity coefficient (333.25 K): 39 ± 2.7 | activity coefficient (343.65 K): 35.2 ± 2.4 | activity coefficient (354.05 K): 32.1 ± 2.2

CCCCC(=O)OC [methyl pentanoate] + CCCC[N+](C)(C)C.O=S(=O)([N-]S(=O)(=O)C(F)(F)F)C(F)(F)F
activity coefficient (322.75 K): 1.66 ± 0.11 | activity coefficient (333.15 K): 1.63 ± 0.11 | activity coefficient (364.55 K): 1.44 ± 0.09 | activity coefficient (374.95 K): 1.33 ± 0.09

CCC(=O)OC [methyl propanoate] + CCCC[N+](C)(C)C.O=S(=O)([N-]S(=O)(=O)C(F)(F)F)C(F)(F)F
activity coefficient (311.65 K): 0.94 ± 0.06 | activity coefficient (333.15 K): 0.92 ± 0.06 | activity coefficient (343.75 K): 0.91 ± 0.06

CCCCCCCCCCCC [dodecane] + CCCC[N+](C)(C)C.O=S(=O)([N-]S(=O)(=O)C(F)(F)F)C(F)(F)F
activity coefficient (333.25 K): 128 ± 8.8 | activity coefficient (343.65 K): 110 ± 7.5 | activity coefficient (354.05 K): 92.3 ± 6.3

CC(C)=O [acetone] + CCCC[N+](C)(C)C.O=S(=O)([N-]S(=O)(=O)C(F)(F)F)C(F)(F)F
activity coefficient (301.85 K): 0.42 ± 0.04 | activity coefficient (312.45 K): 0.42 ± 0.04 | activity coefficient (343.75 K): 0.4 ± 0.03

C=CCCCCC [1-heptene] + CCCC[N+](C)(C)C.O=S(=O)([N-]S(=O)(=O)C(F)(F)F)C(F)(F)F
activity coefficient (306.75 K): 15.6 ± 1.1 | activity coefficient (311.95 K): 14.9 ± 1 | activity coefficient (322.55 K): 13.9 ± 0.95 | activity coefficient (333.25 K): 12.9 ± 0.88 | activity coefficient (343.65 K): 12 ± 0.82 | activity coefficient (354.05 K): 11.3 ± 0.77

CCCCC=O [pentanal] + CCCC[N+](C)(C)C.O=S(=O)([N-]S(=O)(=O)C(F)(F)F)C(F)(F)F
activity coefficient (301.75 K): 1.71 ± 0.11 | activity coefficient (312.25 K): 1.65 ± 0.11 | activity coefficient (322.75 K): 1.62 ± 0.11 | activity coefficient (333.25 K): 1.57 ± 0.1 | activity coefficient (343.55 K): 1.5 ± 0.1 | activity coefficient (354.15 K): 1.46 ± 0.1

CCCCCO [pentan-1-ol] + CCCC[N+](C)(C)C.O=S(=O)([N-]S(=O)(=O)C(F)(F)F)C(F)(F)F
activity coefficient (322.85 K): 3.85 ± 0.26 | activity coefficient (333.15 K): 3.39 ± 0.23 | activity coefficient (343.65 K): 3.01 ± 0.2 | activity coefficient (354.05 K): 2.72 ± 0.19 | activity coefficient (364.45 K): 2.45 ± 0.17

CCCC(=O)OC [methyl butanoate] + CCCC[N+](C)(C)C.O=S(=O)([N-]S(=O)(=O)C(F)(F)F)C(F)(F)F
activity coefficient (311.65 K): 1.31 ± 0.09 | activity coefficient (333.15 K): 1.26 ± 0.08 | activity coefficient (364.45 K): 1.2 ± 0.08

— the NIST ThermoML archive (doi:10.1021/je050440b)
